Results taken from PubChem BioAssay AID588780 (Sanford-Burnham Center for Chemical Genomics, 2011).
Active and inactive are the calls of the source.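 Rule for the calls: active = compounds whose fitted half-maximal concentration in the cell-protection dose series is at or below a set limit; inactive = the rest.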

test system: H9c2 cardiomyocytes, 2-deoxyglucose stress, ATP luminescence, 2 h; experiment: protection of cardiomyocytes from 2-deoxyglucose injury, dose response, cell-based, 2-deoxyglucose stress, uHTS hits (AID 588780)

| SMILES | IC50 |
| --- | --- |
| Cc1cc(NC(=O)COC(=O)Cn2[nH]c(=O)c3ccccc3c2=O)c([N+](=O)[O-])cc1C | > 79 µM (inactive) |
| Cc1ccc(C(C(=O)NCc2ccccc2)N(Cc2cccs2)C(=O)c2ccc3c(c2)OCCO3)cc1 (stereo not drawn) | > 79 µM (inactive) |
| CCOC(=O)CSc1nc2sc(C)c(C)c2c(=O)[nH]1 | > 79 µM (inactive) |
| O=C(CCCN1C(=O)c2cccc3cccc(c23)C1=O)N1CCN(c2ccccc2O)CC1 | 10.3 µM |
| N#CC1=C(N)Oc2c(O)cc3ccccc3c2C1c1ccsc1 (stereo not drawn) | > 79 µM (inactive) |
| Cn1c(=O)c2c(nc(NCc3cccnc3)n2Cc2cccc(C(F)(F)F)c2)n(C)c1=O | > 79 µM (inactive) |
| Cc1sc2nc(CSCC(=O)N(CCC#N)c3ccccc3F)[nH]c(=O)c2c1C | 27.9 µM |
| O=C(Nc1ccc(C(=O)N2CCOCC2)cc1)c1cnn2c(C(F)F)cc(-c3ccccc3)nc12 | > 79 µM (inactive) |
| COc1ccc(NC(=O)C(OC(=O)c2ccc([N+](=O)[O-])o2)c2ccccc2)cc1Cl (stereo not drawn) | > 79 µM (inactive) |
| COc1cc(CN2C[C@@H](CO)O[C@@H](n3cnc4c(Nc5ccccc5)ncnc43)C2)cc(OC)c1OC | 12.7 µM |
| Nc1c(C(=O)N/N=C/c2cccnc2)oc2nc(-c3ccccc3)cc(-c3ccco3)c12 | > 79 µM (inactive) |
| COc1ccc(CCn2c(=O)c3cccnc3n(Cc3ccc([N+](=O)[O-])cc3)c2=O)cc1OC | 10.1 µM |
| O=c1[nH]c(NCc2ccccc2)nc2c1CCCC2 | > 79 µM (inactive) |
| CC(=O)c1ccc(C(=O)Nc2nnc(-c3ccc(Cl)cc3)o2)cc1 | 15.7 µM |
| Oc1ccc(Br)cc1C=Nc1ccc2[nH]ncc2c1 | > 79 µM (inactive) |
| COc1ccc2c(c1OC)c(=O)n1c3ccc(OC(C)C(=O)NCCN4CCOCC4)cc3c3ccnc2c31 (stereo not drawn) | 29.3 µM |
| COc1ccc(-c2cc3nc(-c4ccccc4)cc(N4CCN(C(=O)c5ccoc5)CC4)n3n2)cc1 | 6.39 µM |
| C[C@H](CO)N1C[C@H](C)[C@@H](CN(C)C(=O)Nc2ccc3c(c2)OCO3)Oc2c(NC(=O)Nc3ccc(C(F)(F)F)cc3)cccc2C1=O | > 79 µM (inactive) |
| CN1C(=O)CSc2ccc(NC(=O)Nc3ccccn3)cc21 | > 79 µM (inactive) |
| CCn1cc(C(=O)Nc2cccc(NC(C)=O)c2)c2cc(OC)c(OC)cc2c1=O | > 79 µM (inactive) |
| CC(=O)Nc1cc(-c2cccc(C(=O)N(C)C)c2)cn2c(-c3ccc(C(C)=O)cc3)cnc12 | 15.1 µM |
| CC(C)(C)c1ccc(OCCCC(=O)NNC(=O)c2ccccc2O)cc1 | > 79 µM (inactive) |
| O=C(CCCSc1ccccc1)Nc1nc(-c2ccccn2)cs1 | > 79 µM (inactive) |
| CC(OC(=O)CCc1nc2ccccc2c(=O)[nH]1)C(=O)Nc1ccc2c(c1)OCO2 (stereo not drawn) | > 79 µM (inactive) |
| c1cc2[nH]snc2c2nc(C3CC3)nc12 | 10.2 µM |
| COc1cccc(/C=N/NC(=O)c2ccncc2)c1OC(=O)c1ccc(Br)cc1 | 24.7 µM |

| SMILES | IC50 |
| --- | --- |
| COc1ccc(-c2nc(NC(=O)c3ccc(OCC(=O)N4CCOCC4)c(OC)c3)sc2C)cc1 | > 79 µM (inactive) |
| COC(=O)c1cc(OC)c(OC)cc1NC(=O)c1ccc(C)o1 | 25.9 µM |
| CCOC(=O)C1CCCN(C(=O)CCC(=O)Nc2ccc3nc(N4CCOCC4)cc(C)c3c2)C1 (stereo not drawn) | 11 µM |
| O=C(CCc1nc2ccccc2c(=O)[nH]1)NNC(=O)COc1cccc(F)c1 | > 79 µM (inactive) |
| Cn1c(/C=N/NC(=O)c2ccccc2)nc2ccccc21 | > 79 µM (inactive) |
| Cc1cc(C)cc(NC(=O)CSc2ccc(-c3ccccn3)nn2)c1 | > 79 µM (inactive) |
| COC(=O)c1ccc(Cn2nnc3c(=O)[nH]c(C4CCCN(S(=O)(=O)c5ccccc5)C4)nc32)cc1 (stereo not drawn) | > 79 µM (inactive) |
| Nc1c(C(=O)NC2CCCC2)c2nc3ccccc3nc2n1N | > 79 µM (inactive) |
| CC(C(=O)NC1CCCC1)N(C(=O)Cn1nnc(-c2ccc(F)cc2)n1)c1ccccc1F (stereo not drawn) | > 79 µM (inactive) |
| CC(OC(=O)c1cc2c(ccc3ccccc32)oc1=O)c1nc2ccccc2s1 (stereo not drawn) | 15.7 µM |
| CCOC(=O)c1ccccc1OCc1cc(/C=N/NC(=O)c2cccnc2)ccc1OC | 10.7 µM |
| CCOC(=O)C1=C(C)N=c2s/c(=C\c3ccncc3)c(=O)n2C1c1ccc2c(c1)OCO2 (stereo not drawn) | 41.1 µM (inactive) |
| COc1ccc(N(CC(=O)N/N=C/c2cccs2)S(=O)(=O)c2ccc(OC)c(OC)c2)cc1 | 27.8 µM |
| CCOC(=O)N1CCC(n2c(SCC(=O)N3CCC(C)CC3)nc3ccccc3c2=O)CC1 | > 79 µM (inactive) |
| COc1cc(-c2cnc3c(NC=O)cc(-c4cccnc4)cn23)cc(OC)c1OC | 30 µM |
| CC(=O)N1CCN(C(=O)CCc2nc3ccccc3c(=O)[nH]2)CC1 | > 79 µM (inactive) |
| Cc1noc(C)c1COC(=O)COc1ccc2c(C)cc(=O)oc2c1 | > 79 µM (inactive) |
| CC(=O)Nc1cc(-c2ccccc2)cn2c(-c3cccc(C(C)=O)c3)cnc12 | 17.8 µM |
| Cc1nnc(SCC(=O)N/N=C/c2cn(-c3ccccc3)nc2-c2ccccc2)n1-c1ccccc1 | 14 µM |
| CCC(=O)N1CCN(c2ccccc2NC(=O)c2ccc(-c3cccc([N+](=O)[O-])c3)o2)CC1 | > 79 µM (inactive) |
| CCOC(=O)c1c(C)[nH]c(O)c1C=Nc1ccc(Cl)cc1 | > 79 µM (inactive) |
| CC(=O)n1cc(/C=N/NC(=O)c2sc(C)nc2C)c2ccccc21 | > 79 µM (inactive) |
| CC(=O)c1cccc(-c2cnc3c(NC=O)cc(-c4ccc(F)cc4)cn23)c1 | > 79 µM (inactive) |
| CCOC(=O)c1cc(-c2ccc(/C=N\n3cnnc3)o2)ccc1Cl | > 79 µM (inactive) |
| COc1cc(-c2cc(NC=O)c3ncc(-c4cccc(C(F)(F)F)c4)n3c2)cc(OC)c1OC | > 79 µM (inactive) |
| O=C(N/N=C\c1ccccn1)c1cccc(C(=O)N/N=C\c2ccccn2)n1 | 36 µM (inactive) |

| SMILES | IC50 |
| --- | --- |
| CNC(=O)c1ccc(-c2sc3nc(N4CCOCC4)c4c(c3c2N)CCCC4)o1 | > 79 µM (inactive) |
| Cc1nc(SCC(=O)N2CCN(c3ccccc3)CC2)c2oc3ccccc3c2n1 | 13.8 µM |
| O=C(c1ccco1)N1CCN(Cc2nc3ccc([N+](=O)[O-])cc3c(=O)n2-c2ccccc2F)CC1 | > 79 µM (inactive) |
| COC(=O)c1ccccc1NC(=O)c1ccc2nccnc2c1 | > 79 µM (inactive) |
| COc1cccc(C(=O)CSc2nnc(-c3cc(OC)c(OC)c(OC)c3)o2)c1 | > 79 µM (inactive) |
| CC(C)COP(=O)(OCC(C)C)C(Nc1ccccc1)c1ccc2c(c1)OCO2 (stereo not drawn) | > 79 µM (inactive) |
| COc1cc(/C=N/NC(=O)c2ccncc2)ccc1OCC(=O)Nc1ccc(C)c(C)c1 | > 79 µM (inactive) |
| CCOC(=O)C1=C(COC(=O)c2cc(OC)c(OC)c(OC)c2)NC(=O)NC1C (stereo not drawn) | 50 µM (inactive) |
| CCOC(=O)COc1cccc(C2NC(=O)c3ccccc3O2)c1 (stereo not drawn) | > 79 µM (inactive) |
| O=C(CCc1nc2ccccc2c(=O)[nH]1)Nc1ccc(N2CCCCC2)cc1 | 19.8 µM |
| COc1ccc(Nc2nc(C(=O)N3CCc4cc(OC)c(OC)cc4C3)cs2)cc1 | > 79 µM (inactive) |
| CCN(CC)C(=O)c1ccc(-c2nnc(Nc3ccc(O)cc3)c3ccccc23)cc1 | 71.4 µM (inactive) |
| O=C(CSc1nnc(-c2cccnc2)o1)c1cc2ccccc2oc1=O | 67 µM (inactive) |
| CCCn1c(SC(C(=O)Nc2cccc(OC)c2)c2ccccc2)nc2ccccc2c1=O (stereo not drawn) | > 79 µM (inactive) |
| O=C(N/N=C/c1c(O)n(-c2ccccc2Cl)c(=O)c2ccccc12)C1COc2ccccc2O1 (stereo not drawn) | 16.2 µM |
| CC/C(C)=N\N=C\c1c(O)n(CC)c2cc(C3=NNC(=O)CC3)ccc12 | 32.4 µM (inactive) |
| COc1cccc(NC(=O)CN(C)C(=O)CCCc2nc3ccccc3c(=O)[nH]2)c1 | > 79 µM (inactive) |
| COc1ccccc1CN(Cc1nc2ccccc2c(=O)[nH]1)S(=O)(=O)c1ccc2ccccc2c1 | > 79 µM (inactive) |
| COC(=O)c1cc(NC(=O)Nc2cc(OC)ccc2OC)cc(C(=O)OC)c1 | 38.4 µM (inactive) |
| COc1ccc(/C=N/NC(=O)c2ccn[nH]2)cc1COc1ccc(Cl)cc1 | > 79 µM (inactive) |
| Cc1cc(C)c(C(=O)CC(=O)c2ccccc2Cl)c(O)c1 | > 79 µM (inactive) |
| CCOC(=O)Cc1csc(NC(=O)NC2(C(F)(F)F)Oc3ccccc3O2)n1 | 35.3 µM (inactive) |
| CC(C)(C)OC(=O)N1CCC(NC(=O)c2nc[nH]c2C(=O)NCC(=O)OCc2ccccc2)CC1 | > 79 µM (inactive) |
| CCOC(=O)C(C)Oc1ccc(C2NC(=O)NC(C)=C2C(C)=O)cc1Br (stereo not drawn) | > 79 µM (inactive) |
| COc1ccc(NC(=O)c2cc(-c3ccccn3)nc3ccccc23)cc1S(=O)(=O)N(C)C | > 79 µM (inactive) |
| NNC(=O)c1cc2ccccc2cc1O | > 79 µM (inactive) |
